Test results taken from patent US9504674B2, “TrkB agonists and methods of use” (EMORY UNIVERSITY, priority 2010, dated 2016).
Several values for one entry are separate records, joined by “and”; a condition that tells them apart may be missing. Equal entries are not always repeated. Entries after “also recorded” stand apart in the source; their conditions may differ.

Experiments:
[1] = target: T1, TrkB F616A (Mus musculus, UniProt P15209, F616A); experiment: Forced swim test in TrkB F616A knockin mice with or without 1NMPP1; format: in vivo; settings: drugs administrated for 5 days; for immobility time in forced swim test, TrkB F616A knockin mice, after 1NMPP1 treatment: 1NMPP1 (25 μM) in drinking water; for immobility time in forced swim test, TrkB F616A knockin mice, saline group: regular drinking water
T1 construct: from tissue; host or cells: TrkB F616A knock-in mice (brain; whole animal in the forced swim test)
Procedure: Male TrkB knockin mice were given the regular drinking water or 1NMPP1 (25 μM) containing drinking water one day before we started to inject the drugs and sustained throughout the whole experiment. The indicated control (saline) and drugs were administrated for 5 days. […] None of the drugs produced a significant change in 1NMPP1 treated TrkB KI mice (n=6 to 7 mice) as compared to control.
TrkB F616A knockin mice were used to assess whether the behavior responses by 7,8-DHF and its derivative is mediated by TrkB receptor. Transgenic mice were subjected to saline or 1NMPP1 pretreatment, respectively.

[2] = target: T2, TrkB (Mus musculus, UniProt P15209); experiment: TrkB activation in mouse brain after single oral administration (immunoblotting); format: in vivo; settings: 1 mg/kg oral, C57BL/6J mice
T2 construct: from tissue; host or cells: brain of wild-type C57BL/6J mice
Procedure: Rat primary neurons were treated with 500 nM. 4′-DMA-7,8-DHF from various time points. The neuronal lysates were analyzed with various antibodies. 4′-DMA-7,8-DHF rapidly activated TrkB and its downstream signaling cascades (left panels). […] One mg/kg of 4′-DMA-7,8-DHF and 7,8-DHF were orally administrated into C57 BL/6J mice and TrkB phosphorylation and its downstream signaling cascades including Akt and MAPK in mouse brain were analyzed by immunoblotting at various time points. TrkB activation by 4′-DMA-7,8-DHF peaked at 4 h, whereas the maximal TrkB activation by 7,8-DHF in mouse brain occurred at 1-2 h (middle panels).
1 mg/kg of various compounds were orally administrated into C57 BL/6J mice and TrkB phosphorylation and its downstream signaling cascades including Akt and MAPK in mouse brain were analyzed by immunoblotting at 2 h.
Time course assay with compound i and m in mouse brain. 1 mg/kg of compound i and m were orally administrated into C57 BL/6J mice and TrkB phosphorylation and its downstream signaling cascades including Akt and MAPK in mouse brain were analyzed by immunoblotting at various time points.
To compare the TrkB activation by these synthetic compounds, primary cortical cultures were prepared. Cortical neurons were treated with 500 nM of various compounds for 20 min and cell lysates were collected. […] Replacing the H-bond acceptor O atom with hydrogen bond donor NH abolishes its stimulatory effect. […] On the other hand, 7,8-DHF provoked TrkB activation with the minimal concentration of 100 nM (FIG. 2B, right panels). To further study 4′-DMA-7,8-DHF's kinetics on TrkB activation, primary neurons were treated for various time points. 4′-DMA-7,8-DHF swiftly activated TrkB as soon as 5 minutes following treatment. […] To compare the stimulatory effect on TrkB receptor in mouse brains, 1 mg/kg of the synthesized derivatives were injected into C57BL/6J mice. TrkB activation was monitored at different time points.
The compounds were orally injected (1 mg/kg) into C57BL/6J mice. The TrkB and its downstream signaling cascades activation at 2 h were examined after drug administration with mouse brain tissues. […] The downstream p-Akt and p-MAPK tightly coupled to p-TrkB signals.

[3] = Forced swim test in C57BL/6J mice; format: in vivo, mouse; settings: 5 mg/kg oral for 21 days, male C57BL/6J mice, immobility in last 4 min of 6 min
Procedure: (§1) Male C57BL/6J mice (8 mice/group) were orally administrated by gavage with 5 mg/kg 4′-DMA-7,8-DHF and 7,8-DHF and vehicle solvent saline for 21 days and subjected to a forced swim test (6 min, immobility recorded in the last 4 min). Data are presented as mean±SEM.
as §1, with “Forced swim test with imidazole flavonoid and compound i. Male” for “Male”, “days,” for “days”
Adult male mice (2-3 months old) were randomly submitted to a forced swim test without a pre-swim. Saline, 4′-DMA-7,8-DHF and 7,8-DHF (5 mg/kg) were orally injected for 21 days. The mice were allowed to adapt to the test room for 2 days. The mice were placed in a clear glass cylinder with a diameter of 16 cm, half-filled with clear water at 24° C.
Accumulating evidence supports that BDNF plays a role in mediating therapeutic effects of antidepressants. Infusion of exogenous BDNF into hippocampus or brain stem has anti-depressant-like behavioral effect. A forced swim test is broadly used for screening of potential antidepressant drugs and is widely used to measure antidepressant activity. To explore whether 4′-DMA-7,8-DHF and 7,8-DHF have any antidepressant effect like BDNF, a forced swim test was conducted after chronic treatment of the mice for 21 days via oral injection.
BDNF/TrkB signaling plays an role in mediating antidepressants' therapeutic effects. A forced swim test is broadly used for screening of potential antidepressant drugs and is widely used to measure antidepressant activity. To explore whether imidazole flavanoid and compound i have any antidepressant effect like BDNF, a forced swim test was conducted after chronic treatment of the mice for 21 days via oral administration.

T2 sequence (P15209 32-821): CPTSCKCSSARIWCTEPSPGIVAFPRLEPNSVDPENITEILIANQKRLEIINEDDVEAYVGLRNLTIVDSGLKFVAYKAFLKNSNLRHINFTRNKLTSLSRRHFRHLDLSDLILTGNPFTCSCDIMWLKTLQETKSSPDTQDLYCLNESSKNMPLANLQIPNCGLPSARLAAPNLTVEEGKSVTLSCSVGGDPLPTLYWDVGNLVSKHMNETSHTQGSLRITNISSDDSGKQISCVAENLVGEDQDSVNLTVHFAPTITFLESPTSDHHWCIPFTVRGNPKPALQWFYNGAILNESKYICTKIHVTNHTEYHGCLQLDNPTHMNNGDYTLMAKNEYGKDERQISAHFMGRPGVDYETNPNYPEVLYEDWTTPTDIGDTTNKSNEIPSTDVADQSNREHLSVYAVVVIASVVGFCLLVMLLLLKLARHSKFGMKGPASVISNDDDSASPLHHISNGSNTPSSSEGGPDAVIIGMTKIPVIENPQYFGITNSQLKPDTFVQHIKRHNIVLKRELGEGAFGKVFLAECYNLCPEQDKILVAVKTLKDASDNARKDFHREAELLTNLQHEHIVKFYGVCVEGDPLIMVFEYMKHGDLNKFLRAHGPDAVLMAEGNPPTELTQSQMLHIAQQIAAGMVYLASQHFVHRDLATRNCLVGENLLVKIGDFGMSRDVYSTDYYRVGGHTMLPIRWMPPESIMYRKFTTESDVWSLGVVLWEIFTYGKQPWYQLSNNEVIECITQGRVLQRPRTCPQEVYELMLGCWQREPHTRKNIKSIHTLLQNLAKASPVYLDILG
T1 sequence (P15209 32-821 F616A): as the sequence (P15209 32-821) above, with F585A counted along it

SMILES	immobility time in forced swim test, TrkB F616A knockin mice, after 1NMPP1 treatment [1]	immobility time in forced swim test, TrkB F616A knockin mice, saline group [1]	duration of TrkB agonistic effect in animals compared with 7,8-DHF [2]	time of onset of TrkB activation in mouse brain [2]	time of peak TrkB activation in mouse brain [2]	TrkB phosphorylation in mouse brain at 2 h [2]	TrkB activity in mouse brain at 16 h [2]	swimming immobility in forced swim test [3]	TrkB activation in mouse brain, time course, compared with compound i ([2]; various time points)	swimming immobility in forced swim test ([3]; listed as imidazole flavanoid)	swimming immobility in forced swim test ([3]; listed as imidazole-derivative)
CN(C)c1ccc(-c2cc(=O)c3ccc(O)c(O)c3o2)cc1 [4′-DMA-7,8-DHF, 4′-dimethylamino-7,8-dihydroxyflavone]	neither 4′-DMA-7,8-DHF nor 7,8-DHF had any significant effect on the immobility time	substantially reduced the immobility time	sustained longer in animals; also recorded: longer period of TrkB activation in mouse brain	1 h	8 h and 4 h	exhibited the strongest TrkB phosphorylation	partially decayed at 16 h	evidently reduced the immobility	–	–	–
O=c1cc(-c2ccccc2)oc2c(O)c(O)ccc12 [7,8-DHF, 7,8-dihydroxyflavone, reference compound]	neither 4′-DMA-7,8-DHF nor 7,8-DHF had any significant effect on the immobility time	substantially reduced the immobility time	–	approximately 2 h	–	–	Elevated TrkB activity was demonstrable even at 16 h	significantly decreased	–	–	–
CN(C)c1ccc(-c2cc(=O)c3ccc4nc[nH]c4c3o2)cc1 [compound m, 8-(4-(dimethylamino)phenyl)chromeno[7,8-d]imidazol-6(1H)-one]	–	–	–	–	–	exhibited the strongest TrkB phosphorylation	–	–	more robust and sustained TrkB activation than compound i	significantly decreased	more robust antidepressant effect than compound i
